How the values were obtained:
[1] = target: T1, Endothelin-1 receptor (Homo sapiens, UniProt P25101)
T1 sequence (P25101 whole entry): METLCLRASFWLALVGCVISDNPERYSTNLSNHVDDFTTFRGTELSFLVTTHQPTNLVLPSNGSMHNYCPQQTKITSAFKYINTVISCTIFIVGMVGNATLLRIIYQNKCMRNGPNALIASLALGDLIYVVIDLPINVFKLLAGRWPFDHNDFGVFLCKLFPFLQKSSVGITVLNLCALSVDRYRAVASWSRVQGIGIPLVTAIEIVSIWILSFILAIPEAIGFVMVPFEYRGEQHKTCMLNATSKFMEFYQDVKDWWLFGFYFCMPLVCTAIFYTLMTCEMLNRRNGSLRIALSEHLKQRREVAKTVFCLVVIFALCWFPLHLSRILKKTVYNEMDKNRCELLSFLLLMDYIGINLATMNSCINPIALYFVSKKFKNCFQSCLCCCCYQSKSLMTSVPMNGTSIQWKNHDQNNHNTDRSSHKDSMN

[2] = target: T2, Endothelin receptor type B (Homo sapiens, UniProt P24530)
T2 sequence (P24530 whole entry): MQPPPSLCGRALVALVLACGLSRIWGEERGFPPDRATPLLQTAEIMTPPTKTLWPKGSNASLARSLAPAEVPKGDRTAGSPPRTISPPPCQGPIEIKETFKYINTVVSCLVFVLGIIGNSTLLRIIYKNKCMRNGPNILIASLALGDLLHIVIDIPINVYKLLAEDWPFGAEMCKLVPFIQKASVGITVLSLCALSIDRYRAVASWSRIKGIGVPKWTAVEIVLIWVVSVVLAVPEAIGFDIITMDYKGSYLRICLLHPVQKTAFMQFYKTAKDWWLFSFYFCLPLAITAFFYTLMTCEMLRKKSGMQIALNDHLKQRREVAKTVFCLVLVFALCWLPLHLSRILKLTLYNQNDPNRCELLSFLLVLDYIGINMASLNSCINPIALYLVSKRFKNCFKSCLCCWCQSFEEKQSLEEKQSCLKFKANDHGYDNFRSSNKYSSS

A Ki [1] of 0.03 nM and a Ki [2] of 0.1 nM were found for CCCCc1ccc2c(n1)[C@@H](c1ccc(OC)cc1C[C@H](C)C(=O)O)[C@H](C(=O)O)[C@H]2c1ccc2c(c1)OCO2 [J-104132] in this work.

From BindingDB's records for PubMed 10336515 (Banyu Pharmaceutical, 1999)
